In patent US20250177586A1, “HEATING APPARATUS AND METHODS” (ACADEMISCH ZIEKENHUIS LEIDEN (H.O.D.N. LUMC), priority 2018, published 2025):

System: S. Epidermidis biofilm
Assay: Eradication of biofilm from titanium alloy coupon by induction-heating thermal shock followed by antibiotics (FIG. 13)
Assay type: cell-based
Settings: vancomycine 10 mg/L and rifampicine 1 mg together, 24 hours exposure in BHI culture medium, after thermal shock of 65° C. from 3.5 minutes with induction heating, N=6 or greater
Description: N=6 or greater for each group.

CN[C@H](CC(C)C)C(=O)N[C@H]1C(=O)N[C@@H](CC(N)=O)C(=O)N[C@H]2C(=O)N[C@H]3C(=O)N[C@H](C(=O)N[C@H](C(=O)O)c4cc(O)cc(O)c4-c4cc3ccc4O)[C@H](O)c3ccc(c(Cl)c3)Oc3cc2cc(c3O[C@@H]2O[C@H](CO)[C@@H](O)[C@H](O)[C@H]2O[C@H]2C[C@](C)(N)[C@H](O)[C@H](C)O2)Oc2ccc(cc2Cl)[C@H]1O [vancomycine]
eradication of biofilm (active count, Log (CFU/cm^2)): full eradication

CO[C@H]1/C=C/O[C@@]2(C)Oc3c(C)c(O)c4c(O)c(c(/C=N/N5CCN(C)CC5)c(O)c4c3C2=O)NC(=O)/C(C)=C\C=C\[C@H](C)[C@H](O)[C@@H](C)[C@@H](O)[C@@H](C)[C@H](OC(C)=O)[C@@H]1C [rifampicine]
eradication of biofilm (active count, Log (CFU/cm^2)): full eradication
